# Results from PubChem BioAssay (NCI).
#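 These data come from cells grown in 96-well plates and exposed to compound for 48 hours at five concentrations. TGI marks complete inhibition of growth.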
# Assays:
# Test in all cases: NCI tumour cell line growth inhibition, 48 h
# NCI-H226 lung = tested on: NCI-H226 lung
# HOP-62 NSCLC = tested on: HOP-62 NSCLC
# K-562 leukemia = tested on: K-562 leukemia
# IGROV1 ovarian = tested on: IGROV1 ovarian
# UACC-62 melanoma = tested on: UACC-62 melanoma
# RPMI-8226 leukemia = tested on: RPMI-8226 leukemia
# PC-3 prostate = tested on: PC-3 prostate
# MOLT-4 leukemia = tested on: MOLT-4 leukemia
# SK-MEL-2 melanoma = tested on: SK-MEL-2 melanoma
# A498 renal = tested on: A498 renal
# SK-MEL-28 melanoma = tested on: SK-MEL-28 melanoma
# TK-10 renal = tested on: TK-10 renal
# CCRF-CEM leukemia = tested on: CCRF-CEM leukemia
# NCI-H522 lung = tested on: NCI-H522 lung
# UO-31 renal = tested on: UO-31 renal
# M14 melanoma = tested on: M14 melanoma
# OVCAR-3 ovarian = tested on: OVCAR-3 ovarian
# SN12C renal = tested on: SN12C renal
# OVCAR-4 ovarian = tested on: OVCAR-4 ovarian
# MCF7 breast = tested on: MCF7 breast
# SW-620 colon = tested on: SW-620 colon
# NCI-H23 lung = tested on: NCI-H23 lung
# T-47D breast = tested on: T-47D breast
# SF-268 CNS = tested on: SF-268 CNS
# OVCAR-5 ovarian = tested on: OVCAR-5 ovarian
# SK-MEL-5 melanoma = tested on: SK-MEL-5 melanoma
# MALME-3M melanoma = tested on: MALME-3M melanoma
# UACC-257 melanoma = tested on: UACC-257 melanoma
# HT29 colon = tested on: HT29 colon
# MDA-N = tested on: MDA-N
# LOX IMVI melanoma = tested on: LOX IMVI melanoma
# BT-549 breast = tested on: BT-549 breast
# HL-60(TB) leukemia = tested on: HL-60(TB) leukemia
# SNB-75 CNS = tested on: SNB-75 CNS
# HCT-15 colon = tested on: HCT-15 colon
# A549 NSCLC = tested on: A549 NSCLC
# 786-0 renal = tested on: 786-0 renal
# NCI-H460 lung = tested on: NCI-H460 lung
# HCC-2998 colon = tested on: HCC-2998 colon
# CAKI-1 renal = tested on: CAKI-1 renal
# SR leukemia = tested on: SR leukemia
# U251 CNS = tested on: U251 CNS
# HCT-116 colon = tested on: HCT-116 colon
# ACHN renal = tested on: ACHN renal
# SNB-19 CNS = tested on: SNB-19 CNS
# MDA-MB-435 = tested on: MDA-MB-435
# OVCAR-8 ovarian = tested on: OVCAR-8 ovarian
# MDA-MB-231 breast = tested on: MDA-MB-231 breast
# EKVX NSCLC = tested on: EKVX NSCLC
# SF-295 CNS = tested on: SF-295 CNS
# SF-539 CNS = tested on: SF-539 CNS
# COLO 205 colon = tested on: COLO 205 colon
# DU-145 prostate = tested on: DU-145 prostate
# NCI/ADR-RES ovarian = tested on: NCI/ADR-RES ovarian
# SK-OV-3 ovarian = tested on: SK-OV-3 ovarian
# KM12 colon = tested on: KM12 colon
# HS 578T breast = tested on: HS 578T breast
# HOP-92 NSCLC = tested on: HOP-92 NSCLC
# RXF 393 renal = tested on: RXF 393 renal
smiles,measurement,setting,value
O=c1/c(=C\c2ccccc2)sc2n1C(c1ccccc1)C1(O)CCCCC1N=2 (centres undefined),TGI,NCI-H226 lung,> 100 µM
same,TGI,HOP-62 NSCLC,> 100 µM
same,TGI,K-562 leukemia,> 100 µM
same,TGI,IGROV1 ovarian,> 100 µM
same,TGI,UACC-62 melanoma,> 100 µM
same,TGI,RPMI-8226 leukemia,> 100 µM
same,TGI,PC-3 prostate,> 100 µM
same,TGI,MOLT-4 leukemia,> 100 µM
same,TGI,SK-MEL-2 melanoma,> 100 µM
same,TGI,A498 renal,> 100 µM
same,TGI,SK-MEL-28 melanoma,> 100 µM
same,TGI,TK-10 renal,> 100 µM
same,TGI,CCRF-CEM leukemia,> 100 µM
same,TGI,NCI-H522 lung,> 100 µM
same,TGI,UO-31 renal,> 100 µM
same,TGI,M14 melanoma,> 100 µM
same,TGI,OVCAR-3 ovarian,> 100 µM
same,TGI,SN12C renal,> 100 µM
same,TGI,OVCAR-4 ovarian,> 100 µM
same,TGI,MCF7 breast,> 100 µM
same,TGI,SW-620 colon,> 100 µM
same,TGI,NCI-H23 lung,> 100 µM
same,TGI,T-47D breast,> 100 µM
same,TGI,SF-268 CNS,> 100 µM
same,TGI,OVCAR-5 ovarian,> 100 µM
same,TGI,SK-MEL-5 melanoma,> 100 µM
same,TGI,MALME-3M melanoma,> 100 µM
same,TGI,UACC-257 melanoma,> 100 µM
same,TGI,HT29 colon,> 100 µM
same,TGI,MDA-N,> 100 µM
same,TGI,LOX IMVI melanoma,> 100 µM
same,TGI,BT-549 breast,> 100 µM
same,TGI,HL-60(TB) leukemia,> 100 µM
same,TGI,SNB-75 CNS,> 100 µM
same,TGI,HCT-15 colon,> 100 µM
same,TGI,A549 NSCLC,> 100 µM
same,TGI,786-0 renal,> 100 µM
same,TGI,NCI-H460 lung,> 100 µM
same,TGI,HCC-2998 colon,> 100 µM
same,TGI,CAKI-1 renal,> 100 µM
same,TGI,SR leukemia,> 100 µM
same,TGI,U251 CNS,> 100 µM
same,TGI,HCT-116 colon,> 100 µM
same,TGI,ACHN renal,> 100 µM
same,TGI,SNB-19 CNS,> 100 µM
same,TGI,MDA-MB-435,> 100 µM
same,TGI,OVCAR-8 ovarian,> 100 µM
same,TGI,MDA-MB-231 breast,> 100 µM
CN(C)N1C(=O)c2ccccc2NC1c1ccccc1 (centres undefined),TGI,NCI-H226 lung,> 100 µM
same,TGI,HOP-62 NSCLC,> 100 µM
same,TGI,EKVX NSCLC,> 100 µM
same,TGI,IGROV1 ovarian,> 100 µM
same,TGI,UACC-62 melanoma,> 100 µM
same,TGI,SF-295 CNS,> 100 µM
same,TGI,RPMI-8226 leukemia,> 100 µM
same,TGI,PC-3 prostate,> 100 µM
same,TGI,MOLT-4 leukemia,> 100 µM
same,TGI,SK-MEL-2 melanoma,> 100 µM
same,TGI,A498 renal,> 100 µM
same,TGI,SK-MEL-28 melanoma,> 100 µM
same,TGI,TK-10 renal,> 100 µM
same,TGI,CCRF-CEM leukemia,> 100 µM
same,TGI,NCI-H522 lung,> 100 µM
same,TGI,UO-31 renal,> 100 µM
same,TGI,M14 melanoma,> 100 µM
same,TGI,SF-539 CNS,> 100 µM
same,TGI,OVCAR-3 ovarian,> 100 µM
same,TGI,COLO 205 colon,> 100 µM
same,TGI,DU-145 prostate,> 100 µM
same,TGI,NCI/ADR-RES ovarian,> 100 µM
same,TGI,SK-OV-3 ovarian,> 100 µM
same,TGI,SN12C renal,> 100 µM
same,TGI,OVCAR-4 ovarian,> 100 µM
same,TGI,MCF7 breast,> 100 µM
same,TGI,SW-620 colon,> 100 µM
same,TGI,KM12 colon,> 100 µM
same,TGI,NCI-H23 lung,> 100 µM
same,TGI,T-47D breast,> 100 µM
same,TGI,SF-268 CNS,> 100 µM
same,TGI,OVCAR-5 ovarian,> 100 µM
same,TGI,SK-MEL-5 melanoma,> 100 µM
same,TGI,MALME-3M melanoma,> 100 µM
same,TGI,UACC-257 melanoma,> 100 µM
same,TGI,HT29 colon,> 100 µM
same,TGI,MDA-N,> 100 µM
same,TGI,LOX IMVI melanoma,> 100 µM
same,TGI,BT-549 breast,> 100 µM
same,TGI,SNB-75 CNS,> 100 µM
same,TGI,HCT-15 colon,> 100 µM
same,TGI,HS 578T breast,> 100 µM
same,TGI,A549 NSCLC,> 100 µM
same,TGI,786-0 renal,> 100 µM
same,TGI,NCI-H460 lung,> 100 µM
same,TGI,HOP-92 NSCLC,> 100 µM
same,TGI,HCC-2998 colon,> 100 µM
same,TGI,CAKI-1 renal,> 100 µM
same,TGI,U251 CNS,> 100 µM
same,TGI,HCT-116 colon,> 100 µM
same,TGI,ACHN renal,> 100 µM
same,TGI,SNB-19 CNS,> 100 µM
same,TGI,MDA-MB-435,> 100 µM
same,TGI,OVCAR-8 ovarian,> 100 µM
same,TGI,MDA-MB-231 breast,> 100 µM
CCCCCCCCCCCCCCCCCCNc1ccn(C2OC(COP(=O)(O)OCC3CCC(n4cnc5c(=O)[nH]cnc54)O3)C(O)C2O)c(=O)n1 (centres undefined),TGI,NCI-H226 lung,> 100 µM
same,TGI,HOP-62 NSCLC,> 100 µM
same,TGI,EKVX NSCLC,> 100 µM
same,TGI,IGROV1 ovarian,> 100 µM
same,TGI,UACC-62 melanoma,> 100 µM
same,TGI,SF-295 CNS,> 100 µM
same,TGI,PC-3 prostate,47.6 µM
same,TGI,MOLT-4 leukemia,> 100 µM
same,TGI,SK-MEL-2 melanoma,> 100 µM
same,TGI,A498 renal,> 100 µM
same,TGI,SK-MEL-28 melanoma,> 100 µM
same,TGI,TK-10 renal,> 100 µM
same,TGI,CCRF-CEM leukemia,> 100 µM
same,TGI,NCI-H522 lung,> 100 µM
same,TGI,UO-31 renal,> 100 µM
same,TGI,M14 melanoma,> 100 µM
same,TGI,SF-539 CNS,> 100 µM
same,TGI,OVCAR-3 ovarian,> 100 µM
same,TGI,COLO 205 colon,> 100 µM
same,TGI,DU-145 prostate,> 100 µM
same,TGI,NCI/ADR-RES ovarian,> 100 µM
same,TGI,SK-OV-3 ovarian,> 100 µM
same,TGI,SN12C renal,> 100 µM
same,TGI,OVCAR-4 ovarian,> 100 µM
same,TGI,MCF7 breast,> 100 µM
same,TGI,SW-620 colon,> 100 µM
same,TGI,KM12 colon,> 100 µM
same,TGI,NCI-H23 lung,> 100 µM
same,TGI,T-47D breast,> 100 µM
same,TGI,SF-268 CNS,> 100 µM
same,TGI,OVCAR-5 ovarian,> 100 µM
same,TGI,SK-MEL-5 melanoma,> 100 µM
same,TGI,MALME-3M melanoma,> 100 µM
same,TGI,UACC-257 melanoma,> 100 µM
same,TGI,HT29 colon,> 100 µM
same,TGI,MDA-N,> 100 µM
same,TGI,LOX IMVI melanoma,> 100 µM
same,TGI,BT-549 breast,> 100 µM
same,TGI,SNB-75 CNS,> 100 µM
same,TGI,HCT-15 colon,> 100 µM
same,TGI,HS 578T breast,> 100 µM
same,TGI,A549 NSCLC,> 100 µM
same,TGI,786-0 renal,> 100 µM
same,TGI,NCI-H460 lung,> 100 µM
same,TGI,HOP-92 NSCLC,> 100 µM
same,TGI,CAKI-1 renal,> 100 µM
same,TGI,U251 CNS,> 100 µM
same,TGI,RXF 393 renal,> 100 µM
same,TGI,HCT-116 colon,> 100 µM
same,TGI,ACHN renal,> 100 µM
same,TGI,SNB-19 CNS,> 100 µM
same,TGI,MDA-MB-435,> 100 µM
same,TGI,OVCAR-8 ovarian,> 100 µM
Cc1ccsc1/C=N/Nc1cc(C)c2cccc(C)c2n1,TGI,NCI-H226 lung,> 100 µM
same,TGI,HOP-62 NSCLC,> 100 µM
same,TGI,EKVX NSCLC,> 100 µM
same,TGI,IGROV1 ovarian,> 100 µM
same,TGI,UACC-62 melanoma,> 100 µM
same,TGI,SF-295 CNS,> 100 µM
same,TGI,PC-3 prostate,> 100 µM
same,TGI,SK-MEL-2 melanoma,> 100 µM
same,TGI,A498 renal,> 100 µM
same,TGI,SK-MEL-28 melanoma,> 100 µM
same,TGI,TK-10 renal,> 100 µM
same,TGI,M14 melanoma,> 100 µM
same,TGI,OVCAR-3 ovarian,> 100 µM
same,TGI,COLO 205 colon,> 100 µM
same,TGI,DU-145 prostate,> 100 µM
same,TGI,NCI/ADR-RES ovarian,> 100 µM
same,TGI,SK-OV-3 ovarian,> 100 µM
same,TGI,SN12C renal,> 100 µM
same,TGI,OVCAR-4 ovarian,> 100 µM
same,TGI,MCF7 breast,> 100 µM
same,TGI,SW-620 colon,> 100 µM
same,TGI,KM12 colon,> 100 µM
same,TGI,NCI-H23 lung,> 100 µM
same,TGI,T-47D breast,> 100 µM
same,TGI,SF-268 CNS,> 100 µM
same,TGI,OVCAR-5 ovarian,> 100 µM
same,TGI,UACC-257 melanoma,> 100 µM
same,TGI,HT29 colon,> 100 µM
same,TGI,MDA-N,> 100 µM
same,TGI,BT-549 breast,> 100 µM
same,TGI,HL-60(TB) leukemia,71.2 µM
same,TGI,SNB-75 CNS,> 100 µM
same,TGI,HS 578T breast,> 100 µM
same,TGI,A549 NSCLC,> 100 µM
same,TGI,786-0 renal,> 100 µM
same,TGI,HOP-92 NSCLC,> 100 µM
same,TGI,HCC-2998 colon,> 100 µM
same,TGI,CAKI-1 renal,> 100 µM
same,TGI,U251 CNS,> 100 µM
same,TGI,ACHN renal,> 100 µM
same,TGI,SNB-19 CNS,> 100 µM
same,TGI,MDA-MB-435,> 100 µM
same,TGI,OVCAR-8 ovarian,> 100 µM
